In PubChem BioAssay (NCI):
“And” between values parts separate entries of the source, which are not always exact repeats. Equal entries are not always repeated.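 Compound exposure: 48 hours, 5 concentrations, 96-well plates. GI50 is the concentration that inhibits growth by half. At the TGI there is no net growth.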

What was measured:
Assay in all cases: NCI anticancer screen, dose series, 48 h
[1] = tested on: HOP-62 NSCLC
[2] = tested on: MDA-MB-231 breast
[3] = tested on: KM12 colon
[4] = tested on: NCI-H226 lung
[5] = tested on: A549 NSCLC
[6] = tested on: NCI/ADR-RES ovarian
[7] = tested on: NCI-H23 lung
[8] = tested on: IGROV1 ovarian
[9] = tested on: NCI-H460 lung
[10] = tested on: SR leukemia

SMILES	GI50 [1]	TGI [1] [µM]	GI50 [2]	TGI [2] [µM]	GI50 [3]	TGI [3] [µM]	GI50 [4] [µM]	TGI [4]	GI50 [5]	TGI [5] [µM]	GI50 [6]	TGI [6] [µM]	GI50 [7]	TGI [7] [µM]	GI50 [8]	TGI [8] [µM]	GI50 [9]	TGI [9]	GI50 [10] [µM]	TGI [10] [µM]
O=C(Nc1ccc(Cl)cc1)c1cc2ccccc2cc1O	3.34 µM	> 100	5.83 µM	> 100	2.81 µM	> 100	2.59	82.2 µM	4.54 µM	> 100	2.81 µM	> 100	2 µM	> 100	2.19 µM	> 100	2.67 µM	> 100 µM	3.93	> 100
O=C1CCC2(C=C(Br)C(=O)C(Br)=C2)O1	20.8 µM	39.8	15.4 µM	33.6	17.4 µM	31.3	17.6	36.2 µM	24.5 µM	67.3	16.2 µM	37.3	12 µM	30	6.59 µM	15.6	19.6 µM	38.6 µM	2.59	9.69
CCN(CC)CCCCCCCNc1c2ccc(Cl)cc2nc2ccc(OC)cc12	0.943 µM	2.54	1.48 µM	3.86	0.649 µM	2.17	1.83	4.42 µM	0.664 µM	2.69	1.03 µM	4.07	1.14 µM	2.84	0.498 µM	1.65	0.416 µM	1.67 µM	0.238	0.634
Cc1ccc2c(=O)c3cccc(CC(=O)O)c3oc2c1C	> 100 µM	> 100	> 100 µM	> 100	> 100 µM	> 100	> 100	> 100 µM	> 100 µM	> 100	> 100 µM	> 100	> 100 µM	> 100	> 100 µM	> 100	> 100 µM	> 100 µM	> 100	> 100
COc1ccc(-c2cn[nH]c2-c2cc(OC)c(OC)c(OC)c2)cc1N	< 0.01 µM and 0.0766 µM	> 100	< 0.01 µM and 0.063 µM	> 100	< 0.01 µM and 0.026 µM	> 100	–	> 100 µM and 56.3 µM	< 0.01 µM and 0.0425 µM	> 100	< 0.01 µM and 0.0379 µM	> 100	< 0.01 µM and 0.0634 µM	> 100	< 0.01 µM and 0.0415 µM	> 100	< 0.01 µM and 0.0343 µM	13.3 µM and > 38.5 µM	< 0.01	> 100
COc1ccc(-c2nc(-c3ccccc3)c(-c3ccccc3)n2C2CC2)cc1OC1CCCC1	> 165 µM	> 165	> 165 µM	> 165	50.9 µM	> 165	83.7	> 165 µM	48.7 µM	> 165	58.6 µM	> 165	> 165 µM	> 165	77.8 µM	> 165	11 µM	> 165 µM	7.92	59.4
S=C(N/N=C/c1ccccn1)Nc1ccccn1	1.73 µM	9.22	0.642 µM	> 100	2.87 µM	> 100	2.08	11.8 µM	2.34 µM	76.6	1.74 µM	> 100	3.23 µM	> 100	3.17 µM	> 100	0.962 µM	12.6 µM	0.52	> 100
O=C(NOCC1CC1)c1ccc(F)c(F)c1Nc1ccc(I)cc1Cl	2.04 µM	> 100	0.672 µM	14.7	0.649 µM	7.34	2.77	> 52.1 µM	1.41 µM	13.2	2.85 µM	> 47.9	0.782 µM	23	1.05 µM	5.77	2.42 µM	> 100 µM	3.04	12.1
OCCCCC#Cc1ccccc1C#Cc1ccccc1C(F)(F)F	8.46 µM	> 100	2.83 µM	12.4	3.57 µM	16.7	16.7	44.4 µM	4.36 µM	16.6	4.2 µM	16.2	12.1 µM	27.8	11.2 µM	23.2	17.9 µM	34.7 µM	0.475	2.97
